Results published in patent US20130143825A1, “COMPOUNDS FOR USE IN THE TREATMENT OF DISEASES BASED ON THE EXPRESSION OF TOXIC TRANSCRIPTS” (UNIVERSITAT DE VALENCIA, priority 2010, published 2013).

Assays:
[1] = tested on: 103Y-Gal4/+;UAS-CTG(480)/+ flies; assay: Lethality phenotype in pupae caused by expression of 480 CTG under 103Y-Gal4 (females born); type: in vivo, Drosophila; details: administered to larvae in the food; compared with p10
Method: The 120 vials that make up the chemical library were individually assayed on the lethality phenotype in pupae caused by the expression of 480 CTG under the control of 103Y-Gal4 at a concentration of 80 μM. […] Thus, for positions O1, O2, O3, O4, O5 and O6 of the hexapeptide, a total of six, three, six, four, two and seven active amino acids were obtained, respectively (FIG. 2A). In order to perform the deconvolution, 10 of these 28 amino acids were selected, on the basis of their degree of activity in the biological assay (FIG. 2A). Finally, of the possible combinations, 16 sequences were selected to perform the synthesis of the defined hexapeptides (FIG. 2B). The selection of these 16 peptides was based on redundancy criteria between the physical and chemical properties of active amino acids in similar positions.
At 250 μM, the activity of the peptide decreased, possibly due to a toxic effect of the peptide at higher concentrations.
In order to determine the contribution of each of the p10 residues to their activity on CTG(480), an alanine scanning experiment was performed. These experiments are based on substituting every amino acid of the peptide with alanine and keeping the rest. Alanine is a small amino acid and, in general, not very active; this is why it is used for this type of studies. Since each alanine substitution examines the contribution of an individual amino acid, this experiment makes it possible, on the one hand, to evaluate whether p10 is susceptible to optimisation (in the event that a substitution increases the efficacy of the molecule), or to determine which amino acids are important for its function (in the event that a substitution decreases the activity thereof). The sequence of p10 allows for 5 substitutions; for this reason, 5 new hexapeptides were synthesised which were assayed in relation to the lethality phenotype in 103Y-Gal4; UAS-CTG(480)/+ flies and commercial food.

2-AP-(CUG)23 RNA = assay: 2-aminopurine fluorescence assay (hairpin opening); type: biochemical; details: peptide 100 μM, RNA 1 μM (1:100)
Outline: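 2-AP-labelled (CUG)23 RNA (1 μM) was incubated with peptides at 100 μM (RNA:peptide 1:100), or with MblZF at 0.1–5 μM. 2-aminopurine emission at 375 nm is expressed relative to free RNA, with higher fluorescence indicating a shift from hairpin to single-stranded.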

FAM-(CUG)23 RNA = assay: Fluorescence gel retardation assay with FAM-(CUG)23; type: binding; details: peptide 2.5 mM, RNA 60 nM
Excerpt: The changes on the RNA caused by p10 in the FP assay are small, probably due to the low molecular weight of the molecule (less than 900 Da). For this reason, it was decided to supplement the study with gel retardation experiments. These assays are based on the differences in electrophoretic mobility between stable protein-nucleic acid complexes and their components separately. Since the FAM-(CUG)23 RNA was available, it was decided to prepare a fluorescence gel retardation assay. After determining the optimal quantity of RNA for detection (60 nM; FIG. 21A), the binding between the latter and MblZF was studied. Said binding caused both a decrease in the intensity of the band corresponding to the free RNA in the gel and the appearance of a signal in the interior of the gel wells (bound RNA).
In order to determine whether p10 could bind to CUG RNA molecules, it was decided to perform a similar gel retardation experiment between the peptide and FAM-(CUG)23. p10 bound to the RNA, with part of the complex being retained in the well, as described for MblZF. […] This affinity decreased upon decreasing the size of the repeats (FAM-(CUG)4, FIG. 24C). […] This could be due either to a synergic effect between the protein and the peptide or to an additive effect if both should bind to different RNA sites.
In order to study the specificity of the binding observed between p10 and the CUG repeats, two experiments were performed. In the first place, the five hexapeptides generated during the alanine scanning were assayed. […] In the second place, we studied the effect of p10 on other RNA and DNA sequences, both double-stranded and single-stranded, fluorescently labelled with carboxyfluorescein (FAM) (FIG. 25C).

[2] = tested on: AAG, CGG, CCUG and CAG repeats; assay: Tryptophan extinction assay with repeats different from CUG; type: binding; details: RNA probe 5, 7.5, 10 μM (ppyawa: 10 μM)
Method: This figure illustrates an experiment which tested p10 and its capacity to bind to repeats different from CUG repeats, but which are also involved in diseases where the toxicity of RNAs with repeat expansions has been described. The tryptophan extinction assay was used, using (1) p10+AAG, CGG, CCUG and CAG at different RNA concentrations (5 μM, 7.5 μM and 10 μM).
On the other hand, as represented in FIG. 30, the peptides of the invention (particularly p10) have different binding affinities to hairpin loops formed by repeats other than CUG repeats, such as, for example AAG, CGG, CCUG and CAG. In this example, we tested p10 and its capacity to bind to repeats different from CUG repeats, but which are also involved in diseases where the toxicity of RNAs with long repeats has been described. […] Three assay points were used (3 different probe concentrations), with two measurements in each. The results were normalised to the signal offered by p10 alone. […] A single assay point is shown (probe at 10 μM). The results are shown non-normalised in order to be able to include the initial value of the peptides tested.

CUG60 RNA = assay: Circular dichroism of CUG60 RNA; type: binding; details: RNA 1 μM, p10 0.1-20 μM, MblZF 1 and 1.5 μM, ppyawa 0.5 and 1 μM, payawe 1 μM
Method: However, this effect was not reverted when the RNA was incubated jointly with MblZF and p10, regardless of the order of addition (C).
In order to study possible changes in the secondary structure of RNA induced by p10, in the first place we performed a circular dichroism (CD) experiment, using an RNA with unlabelled CUG repeats (CUG60). The circular dichroism of nucleic acids is caused by the stacking of the bases that make up the sequence thereof. Consequently, when a molecule binds to RNA, affecting the structure thereof, a change is detected in its CD spectrum. […] When we incubated the RNA with increasing concentrations of the peptide of SEQ ID NO: 10 (0.1 μM, 0.5 μM, 1 μM, 10 μM and 20 μM), a similar effect was observed (FIG. 27B). During the readings, the RNA was kept in the cuvette inside the dichrograph at 10° C. Throughout the 3 hours of each experiment, it was possible for the RNA to have been degraded; this would explain the decrease in the intensity of the signal observed. In order to rule out this possibility, the CD spectrum of CUG60 RNA was measured at times 0 and 3 h, having kept the CUG60 RNA at 10° C. at all times.

- significant binding to FAM-(CUG)23 RNA (FAM-(CUG)23 RNA): None
Substance: ppyawa
- activity on lethality phenotype (number of females), alanine scanning [1]: loss of activity
- increase in the fluorescence emission of 2-AP-(CUG)23 (2-AP-(CUG)23 RNA): None of these peptides caused changes
- change of tryptophan fluorescence intensity in the presence of repeats [2]: increase in intensity
- change of circular dichroism spectrum of CUG60 (CUG60 RNA): did not occur
- change of circular dichroism spectrum of CUG60 (CUG60 RNA; listed as p29.1): did not change the RNA spectrum
